# Reference: patent US20260055102A1 (Redx Pharma Limited, priority 2022, published 2026)
# Tests used:
# [1] = molecular target: Recombinant human DDR1 (aa440-876 containing a GST tag) (Homo sapiens (Human), UniProt Q08345); experiment: LanthaScreen Eu Kinase Binding Assay DDR1; conditions: Kinase Tracer 178 5 nM, at least two independent replicates; for IC50: read-out: DDR1 pIC50 (converted)
# Outline: (§1)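 DDR1 (2.5 nM) or DDR2 (1.75 nM) was preincubated with compound 30 min at RT in 50 mM HEPES pH 7.3, 10 mM MgCl2, 1 mM EGTA, 0.01% Tween. Eu-anti-GST and Tracer 178 were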
# [2] = molecular target: Recombinant human DDR2 (aa427-855 containing a GST tag) (Homo sapiens (Human), UniProt Q16832); experiment: LanthaScreen Eu Kinase Binding Assay DDR2; conditions: Kinase Tracer 178 10 nM, at least two independent replicates; for IC50: read-out: DDR2 pIC50 (converted)
# Outline: as §1
# Recombinant human DDR2 (aa427-855 containing a GST tag), sequence (Q16832 427-855): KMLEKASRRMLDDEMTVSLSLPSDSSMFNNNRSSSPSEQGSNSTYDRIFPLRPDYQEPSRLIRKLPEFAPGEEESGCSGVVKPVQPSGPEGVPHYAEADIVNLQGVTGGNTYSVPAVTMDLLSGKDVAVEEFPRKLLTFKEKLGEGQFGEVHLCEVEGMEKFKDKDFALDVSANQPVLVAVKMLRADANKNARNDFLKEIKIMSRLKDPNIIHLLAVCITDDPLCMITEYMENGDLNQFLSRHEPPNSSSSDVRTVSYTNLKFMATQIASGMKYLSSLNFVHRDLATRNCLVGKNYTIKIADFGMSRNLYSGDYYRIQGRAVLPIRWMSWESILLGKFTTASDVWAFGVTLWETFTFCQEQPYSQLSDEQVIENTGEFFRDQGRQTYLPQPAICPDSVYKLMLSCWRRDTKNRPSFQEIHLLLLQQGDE
# Recombinant human DDR1 (aa440-876 containing a GST tag), sequence (Q08345 other isoform, or with tags, fused parts or gaps): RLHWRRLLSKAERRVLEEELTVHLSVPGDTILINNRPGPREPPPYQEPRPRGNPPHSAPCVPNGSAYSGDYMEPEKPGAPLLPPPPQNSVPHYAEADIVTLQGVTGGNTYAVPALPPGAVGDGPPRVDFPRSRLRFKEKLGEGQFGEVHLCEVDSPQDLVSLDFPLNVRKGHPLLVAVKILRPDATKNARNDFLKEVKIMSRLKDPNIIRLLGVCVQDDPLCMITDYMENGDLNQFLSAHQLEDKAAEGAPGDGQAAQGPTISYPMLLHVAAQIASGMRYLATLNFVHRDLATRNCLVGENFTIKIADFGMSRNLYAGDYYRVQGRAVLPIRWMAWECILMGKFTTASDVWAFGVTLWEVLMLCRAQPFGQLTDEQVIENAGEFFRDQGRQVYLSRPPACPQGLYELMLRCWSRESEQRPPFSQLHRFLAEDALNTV
Compound,IC50 [1] [nM],DDR2 pIC50 [2],DDR1 pIC50 [1],IC50 [2] [nM]
"Cn1ncc2c(-c3ccc(-n4c(=O)n(CC(=O)NCC(F)(F)F)c5ccccc54)cc3F)cncc21 [Example 4, 2-[3-[3-fluoro-4-(1-methylpyrazolo[3,4-c]pyridin-4-yl)phenyl]-2-oxobenzimidazol-1-yl]-N-(2,2,2-trifluoroethyl)acetamide]",10 to 100,D (pIC50≤6),–,–
"Cc1cccc2c1n(-c1ccc(-c3cncc4c3cnn4C)nc1)c(=O)n2CC(=O)N1CCOC[C@H]1C(F)(F)F [Example 53, 4-methyl-3-[6-(1-methylpyrazolo[3,4-c]pyridin-4-yl)-3-pyridyl]-1-[2-oxo-2-[(3S)-3-(trifluoromethyl)morpholin-4-yl]ethyl]benzimidazol-2-one]",–,–,A (pIC50>8),10 to 100
Cc1cccc2c1n(-c1ccc(-c3cncc4c3cnn4C)cn1)c(=O)n2CC(=O)NCC(F)(F)F [Example 58],10 to 100,–,–,100 to 1000
"Cn1ncc2c(-c3ccc(-n4c(=O)n(CC(=O)N5CCOC(C(F)(F)F)C5)c5ccccc54)cc3)cncc21 (stereo not shown) [Example 24, 1-[4-(1-methylpyrazolo[3,4-c]pyridin-4-yl)phenyl]-3-[2-oxo-2-[2-(trifluoromethyl)morpholin-4-yl]ethyl]benzimidazol-2-one]",–,D (pIC50≤6),A (pIC50>8),–
"CC(CC(F)(F)F)NC(=O)Cn1c(=O)n(-c2ccc(-c3cncc4c3cnn4C)cc2)c2ccccc21 (stereo not shown) [Example 28, 2-[3-[4-(1-methylpyrazolo[3,4-c]pyridin-4-yl)phenyl]-2-oxo-benzimidazol-1-yl]-N-(3,3,3-trifluoro-1-methyl-propyl)acetamide]",–,D (pIC50≤6),A (pIC50>8),–
"Cc1cc(-n2c(=O)n(CC(=O)NCC(F)(F)F)c3cccc(C)c32)cnc1-c1cncc2[nH]ncc12 [Example 99, 2-[4-methyl-3-[5-methyl-6-(1H-pyrazolo[3,4-c]pyridin-4-yl)-3-pyridyl]-2-oxo-benzimidazol-1-yl]-N-(2,2,2-trifluoroethyl)acetamide]",100 to 1000,D (pIC50≤6),–,–
"Cn1ncc2c(-c3ccc(-n4c(=O)n(CC(=O)NCC(F)(F)F)c5ccccc54)cn3)cncc21 [Example 91, 2-[3-[6-(1-methylpyrazolo[3,4-c]pyridin-4-yl)-3-pyridyl]-2-oxo-benzimidazol-1-yl]-N-(2,2,2-trifluoroethyl)acetamide]",–,D (pIC50≤6),C (7≥pIC50>6),–
"Cn1ncc2c(-c3ccc(-n4c(=O)n(CC(=O)NCCC(F)(F)F)c5ccccc54)cc3)cncc21 [Example 46, 2-[3-[4-(1-methylpyrazolo[3,4-c]pyridin-4-yl)phenyl]-2-oxo-benzimidazol-1-yl]-N-(3,3,3-trifluoropropyl)acetamide]",10 to 100,D (pIC50≤6),–,–
"Cc1cccc2c1n(-c1ccc(-c3cncc4c3cnn4C)cc1)c(=O)n2CC(=O)NCC(F)(F)F [Example 6, 2-[4-methyl-3-[4-(1-methylpyrazolo[3,4-c]pyridin-4-yl)phenyl]-2-oxobenzimidazol-1-yl]-N-(2,2,2-trifluoroethyl)acetamide]",–,–,A (pIC50>8),10 to 100
"Cc1cccc2c1n(-c1ncc(-c3cncc4[nH]ncc34)cn1)c(=O)n2CC(=O)N[C@H](C)C(F)(F)F [Example 98, 2-[4-methyl-2-oxo-3-[5-(1H-pyrazolo[3,4-c]pyridin-4-yl)pyrimidin-2-yl]benzimidazol-1-yl]-N-[(1R)-2,2,2-trifluoro-1-methyl-ethyl]acetamide]",100 to 1000,D (pIC50≤6),–,–
"C[C@@H](CC(F)(F)F)NC(=O)Cn1c(=O)n(-c2ccc(-c3cncc4c3cnn4C)cc2)c2ccccc21 [Example 62, 2-[3-[4-(1-methylpyrazolo[3,4-c]pyridin-4-yl)phenyl]-2-oxo-benzimidazol-1-yl]-N-[(1S)-3,3,3-trifluoro-1-methyl-propyl]acetamide]",–,–,A (pIC50>8),100 to 1000
"COc1cc(-c2cncc3c2cnn3C)ccc1-n1c(=O)n(CC(=O)NCC(F)(F)F)c2ccccc21 [Example 88, 2-[3-[2-methoxy-4-(1-methylpyrazolo[3,4-c]pyridin-4-yl)phenyl]-2-oxo-benzimidazol-1-yl]-N-(2,2,2-trifluoroethyl)acetamide]",100 to 1000,D (pIC50≤6),–,–
"Cc1cccc2c1n(-c1ccc(-c3cncc4c3cnn4C)nc1)c(=O)n2CC(=O)N[C@@H](C)C(F)(F)F [Example 52, 2-[4-methyl-3-[6-(1-methylpyrazolo[3,4-c]pyridin-4-yl)-3-pyridyl]-2-oxo-benzimidazol-1-yl]-N-[(1S)-2,2,2-trifluoro-1-methyl-ethyl]acetamide]",–,–,A (pIC50>8),10 to 100
Cc1cc(-c2cncc3c2cnn3C)ncc1-n1c(=O)n(CC(=O)N[C@@H](C)C(F)(F)F)c2cccc(C)c21 [Example 106],10 to 100,–,–,100 to 1000
